The values below come from patent US12391698B2, “Substituted piperidines and piperazines and methods for the treatment of CNS disorders” (SUVEN LIFE SCIENCES LIMITED, priority 2022, dated 2025).

Data set [1] in a line: Rodent brain penetration study. In kind it is in vivo. The settings on record: rat, po, fed male Wistar rats, 3 mg/kg p.o., mean ± S.D, n = 3, read-out: Rat Brain Penetration (Cbrain/Cplasma) at 3 mg/kg, p.o. @ 1 h. As to the method: Male Wistar rats (260±40 g) were used as experimental animals. Three animals were housed in each cage. Animals were given water and food ad libitum throughout the experiment and maintained on a 12 h light/dark cycle.
Brain penetration was determined in discrete manner in rats. One day prior to dosing, male Wistar rats were acclimatized and randomly grouped according to their body weight. At each time point (0.50, 1 and 2 h), n=3 animals were used.
The test compounds were suitably preformulated and administered orally at (free base equivalent) 3 mg/kg. Blood samples were removed via cardiac puncture under isoflurane anesthesia. The animals were sacrificed to collect brain tissue. Plasma was separated and brain samples were homogenized. Plasma and brain homogenates were stored frozen at −20° C. until analysis. The concentrations of the test compounds in plasma and brain were determined using LC-MS/MS method.
The test compounds were quantified in plasma and brain homogenate by qualified LC-MS/MS method using suitable extraction technique in the calibration range of 1-500 ng/mL. Study samples were analyzed using calibration samples in the batch and quality control samples spread across the batch. Extent of brain-plasma ratio (Cbrain/Cplasma) was calculated.

Data set [2] addresses T1, cloned human 5-HT1A receptor (Homo sapiens, UniProt P08908).
T1 construct: expressed in transfected cells; host or cells: HEK293-EBNA
T1 sequence (P08908 1-422): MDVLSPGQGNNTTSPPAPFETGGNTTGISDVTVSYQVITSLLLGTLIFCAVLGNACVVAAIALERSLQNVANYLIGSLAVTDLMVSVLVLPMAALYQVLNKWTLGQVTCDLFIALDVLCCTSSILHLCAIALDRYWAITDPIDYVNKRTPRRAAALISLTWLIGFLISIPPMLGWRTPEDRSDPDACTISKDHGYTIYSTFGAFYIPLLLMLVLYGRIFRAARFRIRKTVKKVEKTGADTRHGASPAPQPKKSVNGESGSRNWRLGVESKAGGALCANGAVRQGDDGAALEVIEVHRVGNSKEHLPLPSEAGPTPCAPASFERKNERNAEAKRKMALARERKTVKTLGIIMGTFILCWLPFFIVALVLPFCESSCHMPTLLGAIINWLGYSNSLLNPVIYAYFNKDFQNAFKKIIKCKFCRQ
Nature of the data set: Determination of Ki at 5-HT1A receptor (radioligand binding, [3H]-8-Hydroxy DPAT). The settings on record: HEK293-EBNA recombinant cells, [3H]-8-Hydroxy DPAT 0.8 nM. Put shortly: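 Membranes from HEK293-EBNA cells expressing recombinant human 5-HT1A were incubated with 0.8 nM [3H]-8-hydroxy-DPAT for 2 h at r.t. in pH 7.4 Tris-HCl buffer with EDTA, MgSO4 and ascorbic acid. Non-specific binding was defined with 0.1 mM U92016A; bound radioactivity after filtration was compared with controls.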

The nature of data set [3]: Rodent pharmacokinetic study. It counts as in vivo, Male Wistar rats. The settings on record: rat, plasma, mean ± S.D, n = 3; for bioavailability: oral 3 mg/kg vs intravenous 1 mg/kg, read-out: F (Bioavailability). The method, then:
Male Wistar rats (260±50 g) were used as experimental animals. Animals were housed individually in polypropylene cage. Two days prior to study, male Wistar rats were anesthetized with isoflurane for surgical placement of jugular vein catheter. Rats were randomly divided for oral (3 mg/kg) and intravenous (1 mg/kg) dosing (n=3/group) and fasted overnight before oral dosing (p.o.). However, food and water were provided ad libitum to the rats allocated for intravenous dosing.
At pre-determined time points, blood samples were collected through jugular vein and replenished with an equivalent volume of normal saline. Collected blood was transferred into a labeled eppendorf tube containing 10 μL of heparin as an anticoagulant. Typically blood samples were collected at 0.08, 0.25, 0.5, 1, 2, 4, 6, 8, and 24 h post dose. Blood samples were centrifuged at 4000 rpm for 10 min. Plasma was separated and stored frozen at −80° C. until analysis. The concentrations of the test compounds were quantified in plasma by qualified LC-MS/MS method using suitable extraction technique. The test compounds were quantified in the calibration range around 1-1000 ng/mL in plasma. Study samples were analyzed using calibration samples in the batch and quality control samples spread across the batch.
Pharmacokinetic parameters Cmax, AUCt, t1/2. Clearance and Bioavailability (F) were calculated using standard non-compartmental model by using Phoenix WinNonlin 6.0.4 version software package.

Data set [4] deals with cloned human SERT receptor (Homo sapiens, UniProt P31645). Nature of the data set: Determination of Ki at SERT receptor (SPA binding, [3H]-Citalopram). The note with it: HEK293 recombinant cells, [3H]-Citalopram 2 nM. In short, it runs like this:
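HEK293-expressed human SERT; [3H]-citalopram at 2 nM final, nonspecific binding with 0.1 mM venlafaxine. Incubated 3 h at r.t. in 50 mM Tris-HCl pH 7.4, 150 mM NaCl, 5 mM KCl with SPA beads. Bead-proximal radioactivity compared with control values.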

The mark [5] stands for this setting: intravenous (bolus) 1 mg/kg, male Wistar rats.
[6] abbreviates: oral (gavage) 3 mg/kg, fasted male Wistar rats.

Each structure is given as a SMILES string. Where a name gives a salt, the structure may show the parent alone. Read-outs that look alike come from different tables or passages of the source.

Chain of cloned human SERT receptor (P31645 whole entry): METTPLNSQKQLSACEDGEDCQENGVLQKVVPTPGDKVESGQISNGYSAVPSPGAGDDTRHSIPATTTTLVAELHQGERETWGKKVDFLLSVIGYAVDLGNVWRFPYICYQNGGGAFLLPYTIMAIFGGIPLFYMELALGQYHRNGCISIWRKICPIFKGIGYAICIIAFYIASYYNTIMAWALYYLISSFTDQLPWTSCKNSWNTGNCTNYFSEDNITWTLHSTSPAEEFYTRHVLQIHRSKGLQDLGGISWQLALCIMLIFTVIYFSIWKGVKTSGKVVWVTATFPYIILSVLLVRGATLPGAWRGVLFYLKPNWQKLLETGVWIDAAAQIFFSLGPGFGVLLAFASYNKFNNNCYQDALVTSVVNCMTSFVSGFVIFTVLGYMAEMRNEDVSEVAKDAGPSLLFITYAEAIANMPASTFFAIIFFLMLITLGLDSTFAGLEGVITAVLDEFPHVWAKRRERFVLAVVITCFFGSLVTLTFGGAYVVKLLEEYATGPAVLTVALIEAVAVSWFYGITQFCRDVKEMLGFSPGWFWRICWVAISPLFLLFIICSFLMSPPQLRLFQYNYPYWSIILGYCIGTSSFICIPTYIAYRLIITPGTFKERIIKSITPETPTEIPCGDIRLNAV

As to `O=C1C[C@@H]2CCCN2C(=O)N1CCCCN1CCN(c2nsc3ccccc23)CC1` [Example 2, 2-[4-(4-Benzo[d]isothiazol-3-yl-piperazin-1-yl)-butyl]-tetrahydro-pyrrolo[1,2-c]pyrimidine-1,3-dione oxalate], the Kp at 1 h in data set [1] (brain/plasma) stood at 0.49 ± 0.08. Also, the Ki in data set [2] (read-out: Ki h5-HT1A) is 0.06 nM. In data set [3] (setting [5]), this compound showed an AUC(0-t) of 544 ± 19 ng·h/mL, a clearance of 30 ± 1 mL/min/kg and a half-life of 2 ± 0.7 h. Moreover, the bioavailability in data set [3] (male Wistar rats) is 15 ± 3%. In data set [3] (setting [6]), this compound gave an area under the curve AUC(0-t) of 244 ± 53 ng·h/mL, a Cmax of 253 ± 59 ng/mL and a half-life of 1.3 ± 0.1 h. For the same compound, the Ki in data set [4] (read-out: Ki hSERT) turned out to be 1060 nM.

Turning to `O=C1C[C@@H]2CCCN2C(=O)N1CCCCN1CCN(c2cccc3sccc23)CC1` [Example 4, 2-[4-(4-Benzo[b]thiophen-4-yl-piperazin-1-yl)-butyl]-tetrahydro-pyrrolo[1,2-c]pyrimidine-1,3-dione oxalate], the Kp at 1 h in data set [1] (brain/plasma) came out at 2.14 ± 0.88. In addition, in data set [2] (read-out: Ki h5-HT1A), the inhibition constant Ki came to 0.195 nM. In addition, in data set [3] (setting [5]), the area under the curve AUC(0-t) worked out at 350 ± 40 ng·h/mL, the clearance is 48 ± 5 mL/min/kg and the half-life is 0.8 ± 0.2 h. Besides, the bioavailability in data set [3] (male Wistar rats) came out at 16 ± 1%. In addition, in data set [3] (setting [6]), the AUC(0-t) came out at 169 ± 14 ng·h/mL, the Cmax was found to be 77 ± 2 ng/mL and the half-life was 1.1 ± 0.3 h. The Ki in data set [4] (read-out: Ki hSERT) amounted to 228 nM.

For the compound `O=C1C[C@@H]2C[C@H](F)CN2C(=O)N1CCCCN1CCN(c2nsc3ccccc23)CC1` [Example 9, 2-[4-(4-Benzo[d]isothiazol-3-yl-piperazin-1-yl)-butyl]-6-fluoro-tetrahydro-pyrrolo[1,2-c]pyrimidine-1,3-dione oxalate], the Kp at 1 h in data set [1] (brain/plasma) is 0.4 ± 0.13. The inhibitory constant (Ki) in data set [2] (read-out: Ki h5-HT1A) is 0.89 nM. Further, in data set [3] (setting [5]), the area under the curve AUC(0-t) amounted to 415 ± 69 ng·h/mL, the clearance worked out at 40 ± 6 mL/min/kg and the half-life is 1.8 ± 0.1 h. In addition, the bioavailability in data set [3] (male Wistar rats) is 14 ± 2%. In data set [3] (setting [6]), this compound gave an AUC(0-t) of 178 ± 23 ng·h/mL, a maximum concentration (Cmax) of 164 ± 43 ng/mL and a half-life of 1.4 ± 0.3 h. Besides, the Ki in data set [4] (read-out: Ki hSERT) was 833 nM.

As to `O=C1C[C@@H]2C[C@H]3C[C@H]3N2C(=O)N1CCCCN1CCN(c2nsc3ccccc23)CC1` [Example 11, 3-[4-(4-Benzo[d]isothiazol-3-yl-piperazin-1-yl)-butyl]-hexahydro-1b,3-diaza-cyclopropa[a]indene-2,4-dione oxalate], the Kp at 1 h in data set [1] (in vivo) is 0.09 ± 0.16. In data set [2] (Ki h5-HT1A), the inhibitory constant (Ki) is 0.29 nM. Also, in data set [3] (setting [5]), the AUC(0-t) is 412 ± 44 ng·h/mL, the clearance is 41 ± 5 mL/min/kg and the half-life was 1.3 ± 0.1 h. Moreover, in data set [3] (male Wistar rats), the bioavailability is 8 ± 5%. In data set [3] (setting [6]), the AUC(0-t) came to 98 ± 63 ng·h/mL, the Cmax was 94 ± 52 ng/mL and the half-life is 2 ± 0.2 h. For the same compound, in data set [4] (Ki hSERT), the inhibition constant Ki was found to be 1280 nM.
